Laboratory results as given in EP1285920A1, “C10 Ester sustituted taxanes as antitumor agents” (Florida State University Research Foundation, Inc., priority 2001, dated 2003).
Like-named read-outs stand apart in the source and are kept apart here.

System: HCT116
Assay: In Vitro cytotoxicity measured by the cell colony formation assay
Type: cell-based, human
Conditions: read-out: IN VITRO ID 50 HCT116
Procedure, shortened: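 Four hundred cells per dish in McCoy's 5a medium with 10% FBS were allowed to attach for 5 h at 37 °C. They were then exposed to compound for 72 h at 37 °C, added as a 10× stock made fresh in medium. After HBSS rinsing and refeeding, colonies were counted after 7 days.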

[1] = HCT116 colony formation, 72 h with drug, colonies counted after 7 days, ID50 = concentration producing 50% inhibition of colony formation

SMILES	IC50 (Homo sapiens, HCT-116) [nM]	IC50 [1] [nM]
CC(=O)O[C@@]12CO[C@@H]1C[C@H](O)[C@@]1(C)C(=O)[C@H](OC(=O)C3CC3)C3=C(C)[C@@H](OC(=O)[C@H](O)[C@@H](NC(=O)OC(C)C)c4cccs4)C[C@@](O)([C@@H](OC(=O)c4ccccc4)[C@H]21)C3(C)C [Compound 3071]	< 1	–
CCCC(=O)O[C@H]1C(=O)[C@@]2(C)[C@H]([C@H](OC(=O)c3ccccc3)[C@]3(O)C[C@H](OC(=O)[C@H](O)[C@@H](NC(=O)OCC)c4cccs4)C(C)=C1C3(C)C)[C@]1(OC(C)=O)CO[C@@H]1C[C@@H]2O [Compound 3096]	< 1	–
CC(=O)O[C@@]12CO[C@@H]1C[C@H](O)[C@@]1(C)C(=O)[C@H](OC(=O)C3CC3)C3=C(C)[C@@H](OC(=O)[C@H](O)[C@@H](NC(=O)OCC(C)C)c4ccco4)C[C@@](O)([C@@H](OC(=O)c4ccccc4)[C@H]21)C3(C)C [Compound 3102]	< 1	–
CC(=O)O[C@@]12CO[C@@H]1C[C@H](O)[C@@]1(C)C(=O)[C@H](OC(=O)C3CC3)C3=C(C)[C@@H](OC(=O)[C@H](O)[C@@H](NC(=O)OCC(C)C)c4cccs4)C[C@@](O)([C@@H](OC(=O)c4ccccc4)[C@H]21)C3(C)C [Compound 3129]	< 10	–
CCCC(=O)N[C@@H](c1cccs1)[C@@H](O)C(=O)O[C@H]1C[C@@]2(O)[C@@H](OC(=O)c3ccccc3)[C@@H]3[C@]4(OC(C)=O)CO[C@@H]4C[C@H](O)[C@@]3(C)C(=O)[C@H](OC(=O)C3CC3)C(=C1C)C2(C)C [Compound 3132]	< 1	–
CCCC(=O)N[C@@H](c1cccs1)[C@@H](O)C(=O)O[C@H]1C[C@@]2(O)[C@@H](OC(=O)c3ccccc3)[C@@H]3[C@]4(OC(C)=O)CO[C@@H]4C[C@H](O)[C@@]3(C)C(=O)[C@H](OC(=O)CCC)C(=C1C)C2(C)C [Compound 3148]	–	< 1
CCC(=O)O[C@H]1C(=O)[C@@]2(C)[C@H]([C@H](OC(=O)c3ccccc3)[C@]3(O)C[C@H](OC(=O)[C@H](O)[C@@H](NC(=O)OCC(C)C)c4cccs4)C(C)=C1C3(C)C)[C@]1(OC(C)=O)CO[C@@H]1C[C@@H]2O [Compound 3163]	< 1	–
CCCC(=O)O[C@H]1C(=O)[C@@]2(C)[C@H]([C@H](OC(=O)c3ccccc3)[C@]3(O)C[C@H](OC(=O)[C@H](O)[C@@H](NC(=O)c4ccccc4)c4ccco4)C(C)=C1C3(C)C)[C@]1(OC(C)=O)CO[C@@H]1C[C@@H]2O [Compound 3204]	< 1	–
CCCC(=O)N[C@@H](c1ccco1)[C@@H](O)C(=O)O[C@H]1C[C@@]2(O)[C@@H](OC(=O)c3ccccc3)[C@@H]3[C@]4(OC(C)=O)CO[C@@H]4C[C@H](O)[C@@]3(C)C(=O)[C@H](OC(=O)CC)C(=C1C)C2(C)C [Compound 3219]	< 1	–
CCCC(=O)N[C@@H](c1ccco1)[C@@H](O)C(=O)O[C@H]1C[C@@]2(O)[C@@H](OC(=O)c3ccccc3)[C@@H]3[C@]4(OC(C)=O)CO[C@@H]4C[C@H](O)[C@@]3(C)C(=O)[C@H](OC(=O)CCC)C(=C1C)C2(C)C [Compound 3222]	< 1	–
CCCC(=O)O[C@H]1C(=O)[C@@]2(C)[C@H]([C@H](OC(=O)c3ccccc3)[C@]3(O)C[C@H](OC(=O)[C@H](O)[C@@H](NC(=O)c4ccccc4)c4cccs4)C(C)=C1C3(C)C)[C@]1(OC(C)=O)CO[C@@H]1C[C@@H]2O [Compound 3258]	< 1	–
CCCC(=O)O[C@H]1C(=O)[C@@]2(C)[C@H]([C@H](OC(=O)c3ccccc3)[C@]3(O)C[C@H](OC(=O)[C@H](O)[C@@H](NC(=O)OCC(C)C)c4cccs4)C(C)=C1C3(C)C)[C@]1(OC(C)=O)CO[C@@H]1C[C@@H]2O [Compound 3265]	< 10	–
CC(=O)O[C@@]12CO[C@@H]1C[C@H](O)[C@@]1(C)C(=O)[C@H](OC(=O)C3CC3)C3=C(C)[C@@H](OC(=O)[C@H](O)[C@@H](NC(=O)c4ccco4)c4cccs4)C[C@@](O)([C@@H](OC(=O)c4ccccc4)[C@H]21)C3(C)C [Compound 3297]	< 1	–
CCCC(=O)O[C@H]1C(=O)[C@@]2(C)[C@H]([C@H](OC(=O)c3ccccc3)[C@]3(O)C[C@H](OC(=O)[C@H](O)[C@@H](NC(=O)c4ccco4)c4cccs4)C(C)=C1C3(C)C)[C@]1(OC(C)=O)CO[C@@H]1C[C@@H]2O [Compound 3352]	< 1	–
CCC(=O)O[C@H]1C(=O)[C@@]2(C)[C@H]([C@H](OC(=O)c3ccccc3)[C@]3(O)C[C@H](OC(=O)[C@H](O)[C@@H](NC(=O)OC(C)C)c4cccs4)C(C)=C1C3(C)C)[C@]1(OC(C)=O)CO[C@@H]1C[C@@H]2O [Compound 3361]	< 1	–
CCOC(=O)N[C@@H](c1cccs1)[C@@H](O)C(=O)O[C@H]1C[C@@]2(O)[C@@H](OC(=O)c3ccccc3)[C@@H]3[C@]4(OC(C)=O)CO[C@@H]4C[C@H](O)[C@@]3(C)C(=O)[C@H](OC(=O)CC)C(=C1C)C2(C)C [Compound 3370]	< 1	–
CCCC(=O)O[C@H]1C(=O)[C@@]2(C)[C@H]([C@H](OC(=O)c3ccccc3)[C@]3(O)C[C@H](OC(=O)[C@H](O)[C@@H](NC(=O)c4cccs4)c4cccs4)C(C)=C1C3(C)C)[C@]1(OC(C)=O)CO[C@@H]1C[C@@H]2O [Compound 3408]	< 1	–

SMILES	IC50 (Homo sapiens, HCT-116) [nM]	IC50 [1] [nM]
CCCC(=O)O[C@H]1C(=O)[C@@]2(C)[C@H]([C@H](OC(=O)c3ccccc3)[C@]3(O)C[C@H](OC(=O)[C@H](O)[C@@H](NC(=O)OC(C)C)c4ccco4)C(C)=C1C3(C)C)[C@]1(OC(C)=O)CO[C@@H]1C[C@@H]2O [Compound 3417]	< 1	–
CCC(=O)O[C@H]1C(=O)[C@@]2(C)[C@H]([C@H](OC(=O)c3ccccc3)[C@]3(O)C[C@H](OC(=O)[C@H](O)[C@@H](NC(=O)c4cccs4)c4cccs4)C(C)=C1C3(C)C)[C@]1(OC(C)=O)CO[C@@H]1C[C@@H]2O [Compound 3425]	< 1	–
CC(=O)O[C@@]12CO[C@@H]1C[C@H](O)[C@@]1(C)C(=O)[C@H](OC(=O)C3CC3)C3=C(C)[C@@H](OC(=O)[C@H](O)[C@@H](NC(=O)c4cccs4)c4cccs4)C[C@@](O)([C@@H](OC(=O)c4ccccc4)[C@H]21)C3(C)C [Compound 3453]	< 1	–
CCCC(=O)O[C@H]1C(=O)[C@@]2(C)[C@H]([C@H](OC(=O)c3ccccc3)[C@]3(O)C[C@H](OC(=O)[C@H](O)[C@@H](NC(=O)c4ccccc4)C4CC4)C(C)=C1C3(C)C)[C@]1(OC(C)=O)CO[C@@H]1C[C@@H]2O [Compound 3482]	< 1	–
CCC(=O)O[C@H]1C(=O)[C@@]2(C)[C@H]([C@H](OC(=O)c3ccccc3)[C@]3(O)C[C@H](OC(=O)[C@H](O)[C@@H](NC(=O)OC(C)C)c4ccco4)C(C)=C1C3(C)C)[C@]1(OC(C)=O)CO[C@@H]1C[C@@H]2O [Compound 3522]	< 1	–
CCOC(=O)N[C@@H](c1ccco1)[C@@H](O)C(=O)O[C@H]1C[C@@]2(O)[C@@H](OC(=O)c3ccccc3)[C@@H]3[C@]4(OC(C)=O)CO[C@@H]4C[C@H](O)[C@@]3(C)C(=O)[C@H](OC(=O)CC)C(=C1C)C2(C)C [Compound 3535]	< 1	–
CC=CC(=O)NC(c1cccs1)C(O)C(=O)OC1CC2(O)C(OC(=O)c3ccccc3)C3C4(OC(C)=O)COC4CC(O)C3(C)C(=O)C(OC(=O)CCC)C(=C1C)C2(C)C (stereo not shown) [Compound 3595]	–	< 1
CCC(=O)O[C@H]1C(=O)[C@@]2(C)[C@H]([C@H](OC(=O)c3ccccc3)[C@]3(O)C[C@H](OC(=O)[C@H](O)[C@@H](NC(=O)c4cccs4)c4ccco4)C(C)=C1C3(C)C)[C@]1(OC(C)=O)CO[C@@H]1C[C@@H]2O [Compound 3644]	< 1	–
CCCC(=O)O[C@H]1C(=O)[C@@]2(C)[C@H]([C@H](OC(=O)c3ccccc3)[C@]3(O)C[C@H](OC(=O)[C@H](O)[C@@H](NC(=O)c4cccs4)c4ccco4)C(C)=C1C3(C)C)[C@]1(OC(C)=O)CO[C@@H]1C[C@@H]2O [Compound 3656]	< 1	–
CC(=O)O[C@@]12CO[C@@H]1C[C@H](O)[C@@]1(C)C(=O)[C@H](OC(=O)C3CC3)C3=C(C)[C@@H](OC(=O)[C@H](O)[C@@H](NC(=O)c4cccs4)c4ccco4)C[C@@](O)([C@@H](OC(=O)c4ccccc4)[C@H]21)C3(C)C [Compound 3663]	< 1	–
CCOC(=O)N[C@@H](c1ccco1)[C@@H](O)C(=O)O[C@H]1C[C@@]2(O)[C@@H](OC(=O)c3ccccc3)[C@@H]3[C@]4(OC(C)=O)CO[C@@H]4C[C@H](O)[C@@]3(C)C(=O)[C@H](OC(=O)C3CC3)C(=C1C)C2(C)C [Compound 3677]	< 1	–
CCCC(=O)O[C@H]1C(=O)[C@@]2(C)[C@H]([C@H](OC(=O)c3ccccc3)[C@]3(O)C[C@H](OC(=O)[C@H](O)[C@@H](NC(=O)c4ccco4)c4ccco4)C(C)=C1C3(C)C)[C@]1(OC(C)=O)CO[C@@H]1C[C@@H]2O [Compound 3686]	< 1	–
CCCC(=O)O[C@H]1C(=O)[C@@]2(C)[C@H]([C@H](OC(=O)c3ccccc3)[C@]3(O)C[C@H](OC(=O)[C@H](O)[C@@H](NC(=O)OCC)c4ccco4)C(C)=C1C3(C)C)[C@]1(OC(C)=O)CO[C@@H]1C[C@@H]2O [Compound 3693]	< 1	–
CCC(=O)O[C@H]1C(=O)[C@@]2(C)[C@H]([C@H](OC(=O)c3ccccc3)[C@]3(O)C[C@H](OC(=O)[C@H](O)[C@@H](NC(=O)c4ccco4)c4ccco4)C(C)=C1C3(C)C)[C@]1(OC(C)=O)CO[C@@H]1C[C@@H]2O [Compound 3818]	< 1	–
CC(=O)O[C@@]12CO[C@@H]1C[C@H](O)[C@@]1(C)C(=O)[C@H](OC(=O)C3CC3)C3=C(C)[C@@H](OC(=O)[C@H](O)[C@@H](NC(=O)OC(C)C)c4ccco4)C[C@@](O)([C@@H](OC(=O)c4ccccc4)[C@H]21)C3(C)C [Compound 3853]	< 1	–
CC(=O)O[C@@]12CO[C@@H]1C[C@H](O)[C@@]1(C)C(=O)[C@H](OC(=O)C3CC3)C3=C(C)[C@@H](OC(=O)[C@H](O)[C@@H](NC(=O)c4ccco4)c4ccco4)C[C@@](O)([C@@H](OC(=O)c4ccccc4)[C@H]21)C3(C)C [Compound 3866]	< 1	–
CCCC(=O)O[C@H]1C(=O)[C@@]2(C)[C@H]([C@H](OC(=O)c3ccccc3)[C@]3(O)C[C@H](OC(=O)[C@H](O)[C@@H](NC(=O)OC(C)C)c4cccs4)C(C)=C1C3(C)C)[C@]1(OC(C)=O)CO[C@@H]1C[C@@H]2O [Compound 3909]	< 1	–
